{"source": "patent US20170173114A1", "about": "“METHODS AND COMPOSITIONS FOR INDUCTION OF UCP1 EXPRESSION” (Joslin Diabetes Center, Inc., priority 2014, published 2017)", "key": {"[1]": {"biological_target": "T1, PGE2-EP4 receptor (Mus musculus, UniProt P32240)", "T1 construct": "endogenous in cells; host or cells: WT-1 murine brown preadipocytes", "assay": "PGE2-EP4 receptor inhibitor effect on FGF6-induced UCP1 mRNA in WT-1 cells", "type": "cell-based, murine", "conditions": "10 uM, with FGF6 24 hours", "procedure": "The role of the PGE2-EP4 receptor was also examined. WT-1 brown adipocytes were pretreated with AH-23848 (Sigma Aldrich), a calcium salt which is an inhibitor of the PGE2-EP4 receptor. Following AH-23848 (“AH”) treatment of the WT-1 cells at concentrations of 0 uM and 10 uM, the cells were treated with FGF6 alone in growth media (DMEM+10% FBS), AH alone, or the combination of FGF6 and AH for 24 hours. UCP1 mRNA expression for each group was then determined."}, "[2]": {"tested_on": "FGF6 mRNA", "assay": "FGF6 mRNA expression in adipose tissue of mice treated with β3-adrenergic agonist", "type": "in vivo, C57BL/6 mice", "conditions": "intraperitoneal 1 mg/kg body weight for 10 days; relative to PBS control", "procedure": "(§1) Total RNA was isolated with QIAzol lysis reagent (Qiagen, Valencia, Calif.) and purified by RNeasy Mini columns (Qiagen) following the manufacture's instructions. cDNA was prepared from total RNA using the Advantage RT-PCR kit (BD Biosciences, Palo Alto, Calif.) according to manufacturer's instructions. Diluted cDNA was used in a PCR reaction with SYBR Green Master Mix (Applied Biosystems, Foster City, Calif.) and primers specifically designed for detection of the gene of interest. PCR reactions were run in duplicate for each sample and quantitated in the ABI Sequence Detection System (Applied Biosystems). Data were expressed as arbitrary units after normalization to levels of expression of internal controls for each sample. Sequences of primers for specific genes are each obtained from the published literature or designed using publically available gene sequence databases. Unless otherwise indicated, gene expression data described in the examples below was obtained using QPCR.\nCL316,243 was administered by intraperitoneal injection to the mice at a dose of 1 mg/kg body weight for 10 days."}, "[3]": {"tested_on": "UCP1", "assay": "UCP1 mRNA expression (Q-RT-PCR) in WT-1 brown preadipocytes", "type": "cell-based, murine", "procedure": "as §1\nThe effect of FGF6 on differentiation of WT-1 murine brown preadipocytes was also examined. WT-1 cells can be induced to undergo brown adipocyte differentiation, characterized by lipid accumulation and expression of adipogenic and brown fat markers, as described above (Klein et al. (1999) J Biol Chem 274:34795; Tseng et al. (2005) Nat Cell Biol 7:601). WT-1 cells were treated with FGF6 in growth media (DMEM+10% FBS), a vehicle control (“control” or “C” referred to in FIGS. 3A-D), or induction media (“induction” or “I” referred to in FIGS. 3A-D) as described above for seven days. Following the treatment, cells were examined for the color of the culture media in combination with oil Red O staining, expression of adipogenic markers, expression of brown fat markers, immunofluorescent staining of cells with UCP1 and DPAI, and Western blot analysis to determine the presence of UCP1 and β-tubulin. The results are described in FIGS. 3A to 3D.\nUCP1 mRNA expression in brown adipocyte cells was determined at FGF6 concentrations ranging from 0 to 300 ng/ml in the absence of induction cocktail.\nIn order to determine the length of time necessary to induce UCP1 expression upon exposure to of cells to FGF6, an experiment was performed whereby FGF6 was administered to brown preadipocytes at a concentration of 200 ng/ml and UCP1 expression was determined. FGF21 and a control were also used in the time course experiment. FGF21, a member of the endocrine FGF ligands that has been implicated in the browning of white fat (Fisher F. M. et al., Genes Dev. 26:271-281, 2012). […] FGF6 could acutely induce a significant increase of UCP1 expression as early as 4 hours after a 200 ng/ml dose, as described in FIG. 4B. At 24 hours, the fold-induction of UCP1 mRNA by FGF6 reached 700-fold higher than the untreated cells, as described in FIG. 4B.\nTo assess FGF6's role in the regulation of mitochondrial activity, FGF6 was stably expressed in WT-1 brown preadipocytes and 3T3-F442A white preadipocytes. Stable cells were generated by viral infection followed by drug selection.\nFGF2, FGF6 and FGF9 were used at a dosage of 50 ng/mL, 100 ng/mL, 200 ng/mL or 300 ng/mL. FGF21 was used at the dosage of 50 ng/ml and 500 ng/mL. The concentration of BMP7 was 3.3 nM. RNA was isolated and UCP1 and PPARγ expression levels were evaluated by quantitative reverse transcription polymerase chain reaction (Q-RT-PCR) analysis after 24 hours (i.e., 1 day) (FIG. 14A), 2 days (FIG. 14B), 5 days (FIG. 14C) and 7 days (FIG. 14D) of treatment. All experiments were performed triplicate and the data are presented as mean+/−SEM.\nFGF2, FGF6 and FGF9 were used at a dosage of 200 ng/mL. FGF21 was used at a dosage of 500 ng/mL. The concentration of BMP7 was 3.3 nM. mRNA was isolated and UCP1 and PPARγ expression levels were evaluated by quantitative reverse transcription polymerase chain reaction (Q-RT-PCR) analysis after 24 hours (i.e., 1 day), 2 days, 5 days and 7 days of treatment (FIG. 15). […]"}, "[4]": {"tested_on": "PTGS2 (COX2)", "assay": "PTGS2 mRNA / COX2 protein expression in WT-1 brown preadipocytes", "type": "cell-based, murine", "procedure": "as §1\nCells were harvested in lysis buffer (50 mM HEPES, 137 mM NaCl, 1 mM MgCl2, 1 mM CaCl2, 10 mM Na2P2O7, 10 mM NaF, 2 mM EDTA, 10% glycerol, 1% Igepal CA-630, 2 mM vanadate, 10 μg/ml of leupeptin, 10 μg/ml of aprotinin, 2 mM phenylmethylsulfonyl fluoride; pH 7.4). After lysis, lysates were clarified by centrifugation at 12,000×g for 20 min at 4° C., the amount of protein in the supernatants was determined by the Bradford Protein Assay (Bio-Rad Laboratories, Hercules, Calif.). Proteins were directly solubilized in Laemmli sample buffer. Equal amounts of lysates were separated by sodium dodecyl sulfate-polyacrylamide gel electrophoresis and transferred to Immobolin-P membranes. […] Specifically bound primary antibodies were detected with peroxidase-coupled secondary antibody and enhanced chemiluminescence (ECL, Amersham Biosciences, Piscataway, N.J.).\nTo determine if FGF4, FGF5, FGF6, FGF10, FGF16, FGF17, FGF18 or FGF20 induced either UCP1 mRNA or PTGS2 mRNA expression, murine brown preadipocyte WT-1 cells (Tseng et al., Nat. Cell. Biol. (2005) 7(6):601-611) were grown in growth media (DMEM-high glucose+10% FBS) supplemented with FGF4, FGF5, FGF6, FGF10, FGF16, FGF17, FGF18, FGF20 or buffer (control) in combination with insulin (20 nM) and triidothyronine (T3, 1 nM) for three days. All FGFs were used at a dosage of 200 ng/mL. mRNA was isolated and UCP1 and PTGS2 gene expression levels were evaluated by quantitative reverse transcription polymerase chain reaction (Q-RT-PCR) analysis. […]\nTo test the role of specific prostaglandins (PGs) in activating UCP1 expression, WT-1 brown adipocytes were pretreated with PGE2, PGI2 and FGF6 for 24 hours. mRNA expression levels of UCP1, PTGS2, LDHA, PDK1 and PKM2 were then measured."}, "[5]": {"tested_on": "UCP1 and PTGS2", "assay": "UCP1 and PTGS2 mRNA in WT-1 cells undergoing adipocyte differentiation", "type": "cell-based, murine", "conditions": "after induction media; 200 ng/mL FGF or 3.3 nM BMP7, 2 days", "procedure": "In a separate experiment investigating the ability of FGF proteins to induce UCP1 expression in cells undergoing adipocyte differentiation, WT-1 preadipocyte cells were differentiated by culturing in growth media supplemented with insulin (20 nM) and triiodothyronine (T3, 1 nM) for 3 days, followed by incubation in an induction media (growth medium supplemented 20 nM insulin, 1 nM T3, 0.5 mM isobutyl-methylxanthine, 5 μM dexamethasone) for 2 days. The cell were then exposed to BMP7 (3.3 nM) or 200 ng/mL of FGF2, FGF6 or, FGF9 in growth media supplemented with insulin (20 nM) and triodothyronine (T3, 1 nM) for 2 additional days. Cells were harvested and UCP1 and PTGS2 mRNA expression levels were determined according to the quantitative RT-PCR assay described above. Experiments were performed in triplicate and the data presented as mean+/−SEM."}, "[6]": {"tested_on": "UCP1 protein", "assay": "UCP1 protein in WT-1 cells (immunofluorescent staining, Western blot)", "type": "cell-based, murine", "conditions": "WT-1, 200 ng/mL with insulin 20 nM and T3 1 nM; relative to control cells", "procedure": "Cells were harvested in lysis buffer (50 mM HEPES, 137 mM NaCl, 1 mM MgCl2, 1 mM CaCl2, 10 mM Na2P2O7, 10 mM NaF, 2 mM EDTA, 10% glycerol, 1% Igepal CA-630, 2 mM vanadate, 10 μg/ml of leupeptin, 10 μg/ml of aprotinin, 2 mM phenylmethylsulfonyl fluoride; pH 7.4). After lysis, lysates were clarified by centrifugation at 12,000×g for 20 min at 4° C., the amount of protein in the supernatants was determined by the Bradford Protein Assay (Bio-Rad Laboratories, Hercules, Calif.). Proteins were directly solubilized in Laemmli sample buffer. Equal amounts of lysates were separated by sodium dodecyl sulfate-polyacrylamide gel electrophoresis and transferred to Immobolin-P membranes. Membranes were blocked overnight at 4° C. and incubated with the indicated antibody for 2 hours at room temperature. Specifically bound primary antibodies were detected with peroxidase-coupled secondary antibody and enhanced chemiluminescence (ECL, Amersham Biosciences, Piscataway, N.J.).\nThe effect of FGF6 on differentiation of WT-1 murine brown preadipocytes was also examined. WT-1 cells can be induced to undergo brown adipocyte differentiation, characterized by lipid accumulation and expression of adipogenic and brown fat markers, as described above (Klein et al. (1999) J Biol Chem 274:34795; Tseng et al. (2005) Nat Cell Biol 7:601). […]"}, "[7]": {"tested_on": "PPARγ, aP2, FAS, PRDM16, PGC1α, CIDEA", "assay": "Adipogenic and brown fat marker mRNA expression in WT-1 brown preadipocytes", "type": "cell-based, murine", "procedure": "as §1, with “QPCR. […]” for “QPCR.”\nFGF2, FGF6 and FGF9 were used at a dosage of 50 ng/mL, 100 ng/mL, 200 ng/mL or 300 ng/mL. […] RNA was isolated and UCP1 and PPARγ expression levels were evaluated by quantitative reverse transcription polymerase chain reaction (Q-RT-PCR) analysis after 24 hours (i.e., 1 day) (FIG. 14A), 2 days (FIG. 14B), 5 days (FIG. 14C) and 7 days (FIG. 14D) of treatment. […]"}, "[8]": {"conditions": "50, 100 or 300 ng/mL with insulin and T3, three days, FGF1 effect at 300 ng/ml"}, "[9]": {"conditions": "200 ng/mL with insulin and T3, three days"}}, "note": "Entries after “also recorded” stand apart in the source; their conditions may differ.", "data": [{"compound": "O=C(O)CC/C=C\\CC[C@H]1[C@H](N2CCOCC2)C(=O)C[C@H]1OCc1ccc(-c2ccccc2)cc1", "note": "[AH-23848]", "values": [{"measurement": "effect of FGF6 on UCP1 expression in the presence of inhibitor", "setting": "[1]", "value": "reduced; also recorded: suppression"}]}, {"compound": "C[C@H](Cc1ccc2c(c1)OC(C(=O)[O-])(C(=O)[O-])O2)NC[C@H](O)c1cccc(Cl)c1.[Na+].[Na+]", "note": "[CL316,243]", "values": [{"measurement": "FGF6 mRNA expression levels in interscapular BAT and subcutaneous WAT", "setting": "[2]", "value": "increased"}]}, {"compound": "FGF1: fibroblast growth factor 1, recombinant human, R&D Systems", "values": [{"measurement": "UCP1 mRNA expression", "setting": "[3]; [8]", "value": "induced expression"}, {"measurement": "PTGS2 mRNA expression", "setting": "[4]; [8]", "value": "induced expression"}]}, {"compound": "FGF2: fibroblast growth factor 2, recombinant human, R&D Systems", "values": [{"measurement": "PTGS2 mRNA expression in cells undergoing adipocyte differentiation", "setting": "[5]", "value": "able to induce"}, {"measurement": "UCP1 mRNA expression in cells undergoing adipocyte differentiation", "setting": "[5]", "value": "able to induce"}, {"measurement": "UCP1 expression level", "setting": "[3]; 50-300 ng/mL with insulin and T3, 1, 2, 5 and 7 days, dose-responsive", "value": "very high levels of UCP1"}, {"measurement": "UCP1 expression level, time course", "setting": "[3]; FGF2, FGF6, FGF9 200 ng/mL, FGF21 500 ng/mL, with insulin and T3, 1, 2, 5, 7 days", "value": "very high levels of UCP1"}, {"measurement": "UCP1 protein, immunofluorescent staining", "setting": "[6]", "value": "significant levels of staining"}, {"measurement": "PPARγ expression level, time course", "setting": "[7]; 200 ng/mL with insulin and T3, 1, 2, 5, 7 days", "value": "very low levels of PPARγ"}, {"measurement": "PPARγ expression level", "setting": "[7]; 50-300 ng/mL with insulin and T3, 1, 2, 5 and 7 days", "value": "very low levels of PPARγ"}]}, {"compound": "FGF16: fibroblast growth factor 16", "values": [{"measurement": "expression of UCP1", "setting": "[3]; [9]", "value": "minimal expression"}]}, {"compound": "FGF20: fibroblast growth factor 20", "values": [{"measurement": "PTGS2 mRNA expression relative to the control", "setting": "[4]; [9]", "value": "increased"}]}]}
